Results: US20240269104A1, “METHOD FOR TREATING PARKINSON'S DISEASE” (Olatec Therapeutics, Inc., priority 2021, published 2024)

Key:
Format in all cases: in vivo, mice
TNFα = TNFα RNA in the brain by qPCR after MPTP; settings: 200 mg/kg oral gavage; striatum piece, 24 hours after first MPTP injection
Protocol: Mice were treated dapansutrile or saline and injected with MPTP as described in Example 2.
24 hours after the first injection of MPTP, mice were sacrificed. A piece of brain, centered in the striatum, was taken from each mouse and frozen in liquid nitrogen. Samples were homogenized with Trizol lysis reagent (Thermo Fisher) following the manufacturer's protocol. 1 μg of RNA from each sample was reversely transcribed using the High-Capacity Reverse Transcription kit (Applied BioSystems).
Gene expression measures were performed through qPCR using SYBR Green master mix (Applied Biosystems) and recommended thermal cycling parameters: 1 cycle of polymerase activation for 10 min at 95° C. and 40 cycles of denaturalization for 15 sec at 95° C. plus annealing/extension for 1 min at 60° ° C. (capture). Gene levels of TNFα (a pro-inflammatory cytokine) were normalized to the relation ratio of expression of the GADPH gene following the ΔΔCT method. Primers sequences are detailed below. Final fold-change values were obtained by normalization with naïve condition.

IL-18 = IL-18 in brain homogenates by ELISA after MPTP
Protocol: Mice were treated with dapansutrile or saline and injected with MPTP as described in Example 2.
At three days after MPTP, mice were sacrificed and levels of IL-18 in the brain were measured. Briefly, the brain was removed from the mouse and a piece of the striatum was homogenized. Levels of proteins were normalized to 2 mg/ml and IL-18 was measured using the mouse IL-18 ELISA from R and D Systems.
(§1) It has been reported that administration of MPTP induces the assembly of NLPR3 inflammasome in the brain. Mice were sacrificed after anesthesia by cervical dislocation at 4 and 7 days after MPTP administration. Brains were collected, and the striatum (St) and ventral midbrain (VM) areas of both hemispheres were excised and frozen in liquid nitrogen. Samples were homogenized in RIPA buffer (Thermo Fisher, Waltham, MA) supplemented with protease inhibitor (Thermo Fisher) using a TissueRuptor (Qiagen, Germantown, MD). Protein concentration was determined using a BCA Protein Assay Kit (Thermo Fisher) according to manufacturer's instructions. Samples were diluted to 2 mg/ml in the same extraction buffer.
(§2) Levels of IL-1β, IL-18, IL-6, and IL-17A from brain homogenates were measured by ELISA DuoSet kit (R&D Systems, Minneapolis, MN). ELISA kit for IL-1β detects 92-95% of the 17 kDa form and only 8-5% of the precursor form of this cytokine. 96-well plates (ThermoFisher Scientific) were coated with capture antibody. Samples were incubated for two hours at room temperature. Detection antibodies and streptavidin-HRP were added. TMB ELISA (cBioscience, San Diego, CA) was used as substrate solution. Results were measured in a microplate reader (Bio-Tek, Santa Clara, CA). Final values were normalized by the protein concentration of each sample. 4-5 mice per group were used for each cytokine.

IL-6 = IL-6 in brain homogenates by ELISA after MPTP; settings: 200 mg/kg once each day; seven days after MPTP-acute
Excerpt: as §1, §2

[1] = system: white blood cells, lymphocytes, monocytes, and granulocytes; assay: peripheral blood cell counts after MPTP-acute administration; settings: 200 mg/kg, day seven after MPTP-acute
Protocol: Seven days after MPTP-acute administration, peripheral blood and spleen were isolated from each mouse, and hematological changes in the peripheral blood and cytokine production in the spleen were evaluated. […] White blood cells, lymphocytes, monocytes, and granulocytes were measured from the peripheral blood using a HemaTrue cell counter (Heska, Loveland, CO). Spleens were isolated and mechanically passed through a 70 μm cell strainer (ThermoFisher) in PBS. Cells were plated in a 96-well plate at a concentration of 200,000 cells/well in RPMI medium (Coring, New York, NY) with 10% FBS. After that, cells were stimulated with LPS at 1 μg/ml and 5 μg/ml. RPMI medium was used as control. After 72 hours, supernatant was isolated to measure the levels of IL-6. Cells were lysed with RIPA buffer (ThermoFisher) supplemented with protease inhibitor (ThermoFisher) to measure IL-1α levels. In both cases, 5-6 mice per group were used.

α-synuclein = α-synuclein Western blot in the ventral midbrain after MPTP-subacute administration; settings: 200 mg/kg for 6 days, 24 hours after last MPTP injection
Protocol: MPTP (Sigma-Aldrich, St. Louis, MO) can be administered at two dose regimens: acute and sub-acute. For the acute regimen, MPTP was administered intraperitoneally (i.p.) four times in one day. Administrations were performed every two hours over an eight-hour period. For the subacute regimen, mice received a single i.p. administration of MPTP per day for five consecutive days. A 20 mg/kg free-base MPTP dose was used for every dose in both models. Sterile saline was used as the vehicle. Control mice were injected with saline solution using the same administration protocol and were defined as sham. Mice were sacrificed at different days after the first injection of MPTP. We used the acute protocol in C56BL/J mice to study dopamine neurodegeneration, inflammation, and motor deficits, whereas the subacute model was used to evaluate α-synuclein aggregation in the following examples.
Since MPTP promotes α-synuclein aggregation after subacute regimen, we evaluated the effect of dapansutrile on the levels of this protein. 24 hours after the last injection of MPTP, mice were sacrificed. The VM was excised, and proteins were resolved as described in Example 9. VM was selected as the region to evaluate α-synuclein accumulation according to previous publications. […] The levels of α-synuclein were determined by Western blot. […]

[2] = 200 mg/kg once each day, four days after MPTP-acute

CS(=O)(=O)CCC#N [dapansutrile, 3-methanesulfonylpropionitrile]
expression of TNFα RNA in the brain (TNFα): reduces the expression of TNFα RNA in the brain
levels of IL-18 in the ventral midbrain (VM) (IL-18; [2]): no changes associated to dapansutrile
reduction in the levels of IL-18 in the striatum (St) versus MPTP mice treated with saline (IL-18; [2]): 15%
levels of IL-18 in the brain in comparison with mice treated with water (IL-18; 200 mg/kg oral gavage, striatum, three days after MPTP): reduced the levels of IL-18 in the brain
levels of IL-6 in the ventral midbrain (VM) (IL-6): No effects were detected
reduction of levels of IL-6 in the striatum (St) (IL-6): 26%
increase in number of circulating granulocytes [1]: 33%
increase in number of circulating lymphocytes [1]: 24%
levels of monomeric form of α-synuclein (17 kDa) in the ventral midbrain (α-synuclein): significantly reduced
levels of oligomeric forms of α-synuclein (150-30 kDa) in the ventral midbrain (α-synuclein): significantly reduced
